Molecular target: Angiotensin II receptor
Assay: In vitro angiotensin II mesenteric artery receptor binding assay (test 1)
Conditions: rat mesenteric artery membrane fraction, 0.2 nM 125I-Ang II, 22°C, 90 minutes
Description: I) In vitro angiotensin II mesenteric artery receptor binding assay
According to the method (1) by Gunther et al., a membrane fraction was prepared from mesenteric artery of male rat, […] protein equivalent of it and 0.2 nM ^125I-Ang II as well as various concentrations of test compounds were incubated at 22°C for 90 minutes in an incubation buffer (50 mM Tris-HCl, 120 mM NaCl, 5 mM MgCl2. 0.25% bovine serum albumin, pH 7.2) (reaction volume; 200 µl). The incubated was cooled, and the reaction was stopped by addition of ice-cooled phosphate buffer (10 mM phosphate, 140 mM NaCI, pH 7.4, hereinafter referred to as PBS), and then the reaction solution was filtered through a glass fiber filter (Whatman CF/B), the filter was washed, dried, and then the radioactivity of captured ^125I-angiotensin II which bound to the receptor was measured by a γ-counter. Non-specific bound amount was obtained from the reaction in the presence of 1 µM of unlabeled angiotensin II. […] Res., 17:278-286, 1980].

Row | IC50 | Compound
1 | 38 nM | CCCc1nc2c(=O)n3n(c(=O)c2n1Cc1ccc(-c2ccccc2-c2nnn[nH]2)cc1)C1CCC3(COCC(C)O)CC1 (centres unmarked) [Compound No. 227, 5,8-ethano-5-(2-hydroxypropyl)methoxynethyl-2-n-propyl-5,6,7,8-tetrahydro-1-[{2'-(1H-tetrazol-5-yl)biphenyl-4-yl}methyl]-1H-1,3,4a,8a-tetraza-cyclopentanaphthalene-4,9-dione]
2 | 55 nM | CCc1nc2c(=O)n3n(c(=O)c2n1Cc1ccc(-c2ccccc2-c2nn[nH]n2)cc1)C1(C)CCC3(C)CC1 [compound 361, 5,8-dimethyl-5,8-ethano-2-ethyl-5,6,7,8-tetrahydro-1-[{2'-(1H-tetrazol-5-yl)biphenyl-4-yl}methyl]-1H-1,3,4a,8a-tetraza-cyclopentanaphthalene-4,9-dione]
3 | 34 nM | CCCCc1nc2c(n1Cc1ccc(-c3ccccc3-c3nnn[nH]3)cc1)CN1C(CO)CCC(C)N1C2=O (centres unmarked) [Compound No. 540, 2-n-butyl-8-hydroxymethyl-5-methyl-5,6,7,8-tetrahydro-1-[{2'-(1H-tetrazol-5-yl)biphenyl-4-yl}methyl]-1H,9H-1,3,4a,8a-tetraza-cyclopentanaphthalene-4-one]
4 | 5.1 nM | CCCCc1nc2c(=O)n3n(c(=O)c2n1Cc1ccc(-c2ccccc2-c2nn[nH]n2)cc1)C1CCC3(C(=O)OC)CC1 [Compound No. 159, methyl 2-n-butyl-5,8-ethano-4,9-dioxo-5,6,7,8-tetrahydro-1-[{2'-(1H-tetrazol-5-yl)biphenyl4-yl}methyl]-1H-1,3,4a,8a-tetraza-cyclopentanaphthalene-5-carboxylate]
5 | 4.6 nM | CCCc1nc2c(=O)n3n(c(=O)c2n1Cc1ccc(-c2ccccc2-c2nn[nH]n2)cc1)C(C)CCC3C (centres unmarked) [compound 337, 5,8-dimethyl-2-n-propyl-5,6,7,8-tetrahydro-1-[{2'-(1H-tetrazol-5-yl)biphenyl-4-yl}methyl]-1H-1,3,4a,8a-tetraza-cyclopentanaphthalene-4,9-dione]
6 | 35 nM | CCCc1nc2c(n1Cc1ccc(-c3ccccc3-c3nn[nH]n3)cc1)C(=O)N1CC(CC)=C(CC)CN1C2 [Compound No. 390, 6,7-diethyl-5,8-dihydro-2-n-propyl-1-[{2'-(1H-tetrazol-5-yl)biphenyl-4-yl}methyl]-1H,4H-1,3,4a,8a-tetraza-cyclopentanaphthalene-9-one]
7 | > 100 nM | CCCc1nc2c(n1Cc1ccc(-c3ccccc3-c3nnn[nH]3)cc1)CN1C3CCC(CC3)N1C2 [Compound No. 523, 5,8-ethano-4,5,6,7,8,9-hexahydro-2-n-propyl-1-[{2'-(1H-tetrazol-5-yl)biphenyl-4-yl}methyl]-1H-1,3,4a,8a-tetraza-cyclopentanaphthalene]
8 | 47 nM | CCCc1nc2c(=O)n3n(c(=O)c2n1Cc1ccc(-c2ccccc2-c2nnn[nH]2)cc1)C(C(=O)N(CC)CC)CCC3C (centres unmarked) [Compound No. 205, 4,9-dioxo-5-methyl-2-n-propyl-5,6,7,8-tetrahydro-1-[{2'-(1H-tetrazol-5-yl)biphenyl-4-yl}methyl]-1H-1,3,4a,8a-tetraza-cyclopentanaphthalene-8-carboxy-N,N-diethylamide]
9 | > 100 nM | CCCCc1nc2c(n1Cc1ccc(-c3ccccc3-c3nnn[nH]3)cc1)CN1C(C)CCC(CO)N1C2=O (centres unmarked) [Compound No. 538, 2-n-butyl-5-hydroxymethyl-8-methyl-5,6,7,8-tetrahydro-1-[{2'-(1H-tetrazol-5-yl)biphenyl-4-yl}methyl]-1H-9H-1,3,4a,8a-tetraza-cyclopentanaphthalene-4-one]
10 | 34 nM | 2-n-butyl-8-hydroxymethyl-5-methyl-5,6,7,8-tetrahydro-1H,4H-1,3,4a,8a-tetraza-cyclopentanaphthalene-9-one [Compound No. 542]
11 | 14 nM | CCCc1nc2c(=O)n3n(c(=O)c2n1Cc1ccc(-c2ccccc2-c2nn[nH]n2)cc1)CC(C)=C(C)C3 [Compound No. 67, 5,8-dihydro-6,7-dimethyl-2-n-propyl-1-[(2'-(1H-tetrazol-5-yl)biphenyl-4-yl)methyl]-1H-1,3,4a,8a-tetraza-cyclopentanaphthalene-4,9-dione]
